Here are results for 6 compounds from paper PMC8016166, “Identification of a Potent and Selective 5-HT1A Receptor Agonist with In Vitro and In Vivo Antinociceptive Activity” (ACS Chemical Neuroscience, 2020).

Test [1] deals with T1, 5-HT1AR (Rattus norvegicus, UniProt P19327).
T1 construct: from tissue; hippocampus per the main-text methods
T1 sequence (P19327 1-422): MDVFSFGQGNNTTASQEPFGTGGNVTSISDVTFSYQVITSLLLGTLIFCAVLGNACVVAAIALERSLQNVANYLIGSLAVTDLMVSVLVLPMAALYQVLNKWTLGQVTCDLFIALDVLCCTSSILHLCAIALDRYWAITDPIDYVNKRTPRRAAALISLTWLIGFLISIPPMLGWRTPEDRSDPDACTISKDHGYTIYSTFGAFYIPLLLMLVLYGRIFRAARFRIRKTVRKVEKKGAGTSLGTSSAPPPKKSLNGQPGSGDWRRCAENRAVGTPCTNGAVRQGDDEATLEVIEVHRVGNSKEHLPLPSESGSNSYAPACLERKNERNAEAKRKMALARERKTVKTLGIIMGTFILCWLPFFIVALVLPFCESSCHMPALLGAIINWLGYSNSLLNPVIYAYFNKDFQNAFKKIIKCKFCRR
Briefly: Effect of WAY100635 on compound-stimulated [35S]GTPγS binding (Tables SI-1, SI-2). The format is biochemical. To be noted: for Emax: basal set to 100%; for EC50: rat frontal cortex homogenates, read-out: pEC50 ± SEM, compound alone (converted); for shift ratio: with WAY100635 10^-7 M vs agonist alone. The method, then:
The [^35S]GTPγS assay was performed according to the method described previously.[49] […] Nonspecific binding was determined with 100 μM of unlabeled GTPγS. The reaction mixture was incubated for 90 min at 36 °C in a volume of 250 μL. […] Next, 96-well Unifilter Plates (PerkinElmer, USA) were presoaked for 1 h with 50 mM Tris-HCl (pH = 7.4) before harvesting. The reaction was terminated by vacuum filtration onto filter plates with the Filter Mate Harvester (PerkinElmer, USA). The samples were then rapidly washed with 2 mL of 50 mM Tris-HCl (pH = 7.4) buffer. The filter plates were dried for 2 h at 50 °C. After drying, 45 μL of EcoScint-20 scintillant (PerkinElmer, USA) was added to every well. The radioactivity was counted in a Trilux MicroBeta^2 counter (PerkinElmer, USA). The data were analyzed with GraphPad Prism 5.0 software (GraphPad Software, San Diego California USA, www.graphpad.com). To determine whether compound-stimulated [^35S]GTPγS binding involved 5-HT1A receptors, two protocols were used. […]
WAY).) Results were expressed as means ± SEM. Curves were fitted with a one-site sigmoidal dose-response equation […]
calculated as the ratio of pEC50 in the presence of WAY100635 divided by the pEC50 of agonist alone. Basal 5-HT1AR activation was set to 100%. Results were analyzed with one-way ANOVA followed by the Bonferroni’s post-hoc test. […]
WAY100635 (10^-10 M - 10^-5 M, WAY). Results were expressed as means ± SEM. Curves were fitted with a one-site sigmoidal dose-response equation and Emax (%) of the EC80 agonist concentration alone and in the presence of WAY100635 were determined from 2 independent experiments. Basal (no ligand added) [35S]GTPγS binding was set to 100%. Results were analyzed with one-way ANOVA followed by the Bonferroni’s post-hoc test.
On the technique in general: GTPγS resists hydrolysis and so accumulates on activated G proteins.

The target of test [2] is T1, 5-HT1AR. The experiment in a line: [35S]GTPγS functional 5-HT1A assay in rat hippocampal membranes. The format is biochemical. To be noted: for eudismic ratio (EC50S/R): S vs R optical isomer; for agonist classification by Emax vs serotonin: [35S]GTPγS binding, partial = half (or lower) as efficacious as serotonin; for Emax: basal 5-HT1AR activation set to 100%, read-out: 5-HT1A Emax (%) ± SEM. The method, then:
Male Sprague–Dawley rats were decapitated and their brains removed and placed on ice. The hippocampi (for the functional 5-HT1A receptor assay) or frontal cortexes (for the competitive 5-HT2A and 5-HT2C receptor assays) were dissected and homogenized with a glass homogenizer in 30 vol. ice-cold TED buffer (50 mMTris-HCl, 1 mM EDTA, 1 mM dithiotheritol, pH 7.4). Next, the homogenate was centrifuged at 21 000g for 30 min at 4 °C. The pellet was suspended in 30 vol TED buffer (pH 7.4) and incubated in a water bath for 10 min at 37 °C to remove endogenous ligands. The suspension was centrifuged again at 21 000g for 30 min at 4 °C. The pellet was resuspended in 30 vol TED buffer (pH 7.4) and the centrifugation step was repeated. The final pellet was suspended in 10 vol 50 mM Tris-HCl (pH 7.4) and stored at −80 °C until use.[47]
The [^35S]GTPγS assay was performed according to the method described previously.[49] […] Nonspecific binding was determined with 100 μM of unlabeled GTPγS. The reaction mixture was incubated for 90 min at 36 °C in a volume of 250 μL. […] Next, 96-well Unifilter Plates (PerkinElmer, USA) were presoaked for 1 h with 50 mM Tris-HCl (pH = 7.4) before harvesting. The reaction was terminated by vacuum filtration onto filter plates with the Filter Mate Harvester (PerkinElmer, USA). The samples were then rapidly washed with 2 mL of 50 mM Tris-HCl (pH = 7.4) buffer. The filter plates were dried for 2 h at 50 °C. After drying, 45 μL of EcoScint-20 scintillant (PerkinElmer, USA) was added to every well. The radioactivity was counted in a Trilux MicroBeta^2 counter (PerkinElmer, USA). The data were analyzed with GraphPad Prism 5.0 software (GraphPad Software, San Diego California USA, www.graphpad.com). To determine whether compound-stimulated [^35S]GTPγS binding involved 5-HT1A receptors, two protocols were used.
The curves were fitted with a one-site nonlinear regression model. Efficacy (Emax) and potency (pEC50) were calculated from […] from three separate experiments and expressed as the means ± SEM. […] The differences in compound potency and efficacy were evaluated with one-way ANOVA followed by the Bonferroni’s post-hoc test. The baseline G-protein stimulation was set at 100%. One, two, or three symbols represent statistical significance of 0.05, 0.01, and 0.001, respectively.

In the next test the target is T2, human 5-HT7b (Homo sapiens, UniProt P34969).
T2 construct: expressed in transfected cells
Briefly: Radioligand binding at 5-HT7 in transfected HEK293 cells. To be noted: for selectivity 5-HT7/5-HT1A: Antilog [pKi (5-HT1AR) – pKi (5-HT7R)]; for Ki: transfected HEK293 cells, [3H]-5-CT, read-out: 5-HT7 pKi ± SEM (converted).

[3] abbreviates: Table SI-1, read-out: Emax (%) ± SEM, compound alone.
[4] abbreviates: Table SI-2, read-out: Emax (%) ± SEM of EC80 agonist concentration alone.
Where [5] appears, read: rat hippocampal membranes, [35S]GTPγS, three independent experiments, read-out: 5-HT1A pEC50 ± SEM (converted).

T2 sequence (P34969 1-432): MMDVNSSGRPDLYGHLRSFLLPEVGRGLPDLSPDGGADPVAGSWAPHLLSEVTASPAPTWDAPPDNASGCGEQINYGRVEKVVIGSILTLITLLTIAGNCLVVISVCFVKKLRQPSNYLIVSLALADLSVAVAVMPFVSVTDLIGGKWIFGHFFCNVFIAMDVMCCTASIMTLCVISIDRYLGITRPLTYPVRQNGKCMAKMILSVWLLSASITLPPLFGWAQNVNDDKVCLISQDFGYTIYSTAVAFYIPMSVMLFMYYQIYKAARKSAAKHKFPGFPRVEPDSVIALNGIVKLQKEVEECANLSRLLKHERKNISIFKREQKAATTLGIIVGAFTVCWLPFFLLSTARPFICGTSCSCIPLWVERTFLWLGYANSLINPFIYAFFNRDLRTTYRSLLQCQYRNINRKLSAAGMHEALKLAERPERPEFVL

Regarding `c1ccc(C2(c3ccccc3)OCC(CNCCOc3ccccc3-c3ccncc3)O2)cc1` (racemic) [rac-1, N-[(2,2-diphenyl-1,3-dioxolan-4-yl)methyl]-2-[2-(pyridin-4-yl)phenoxy]ethan-1-ammonium hydrogenoxalate], the Emax at 5-HT1AR [1] (setting [3]) worked out at 151 ± 4.2%; at 5-HT1AR [1] (setting [4]), 138 ± 28.4%; on 5-HT1AR [2] (rat hippocampal membranes), 151 ± 4.2%. Moreover, the EC50 on 5-HT1AR [1] (Table SI-1) was 100 nM; on 5-HT1AR [2] ([35S]GTPγS functional assay, read-out: EC50) it was 92.1 nM. The shift ratio at 5-HT1AR [1] (Table SI-1) is listed as 6.3. The “eudismic ratio (EC50S/R)” value on 5-HT1AR [2] ([35S]GTPγS) amounted to 4.0. For the same compound, the “agonist classification by Emax vs serotonin” value on 5-HT1AR [2] is listed as “partial agonists”. Also, at human 5-HT7b, the “selectivity 5-HT7/5-HT1A” value is listed as 56. The Ki on human 5-HT7b was 513 nM.
As to `Cn1cncc1-c1ccccc1OCCNCC1COC(c2ccccc2)(c2ccccc2)O1` (racemic) [rac-2, N-((2,2-diphenyl-1,3-dioxolan-4-yl)methyl)-2-(2-(1-methyl-1H-imidazol-5-yl)phenoxy)ethan-1-ammonium hydrogenoxalate], the Emax on 5-HT1AR [1] (setting [3]) turned out to be 184 ± 2.7%; at 5-HT1AR [1] (setting [4]) it was 158 ± 24.6%; at 5-HT1AR [2] (rat hippocampal membranes) it was 184 ± 2.7%. For the same compound, the EC50 at 5-HT1AR [1] (Table SI-1) and on 5-HT1AR [2] (setting [5]) was 39.8 nM in each case. The shift ratio at 5-HT1AR [1] (Table SI-1) is recorded as 31.6. Further, the “eudismic ratio (EC50S/R)” value at 5-HT1AR [2] ([35S]GTPγS) amounted to 2.6. In addition, on 5-HT1AR [2], the “agonist classification by Emax vs serotonin” value was “full agonists”. Also, the “selectivity 5-HT7/5-HT1A” value on human 5-HT7b is reported as 89. The Ki on human 5-HT7b is 661 nM.
Turning to `c1ccc(C2(c3ccccc3)OC[C@@H](CNCCOc3ccccc3-c3ccncc3)O2)cc1` [(R)-1, N-[(2,2-Diphenyl-1,3-dioxolan-4-yl)methyl]-2-[2-(pyridin-4-yl)phenoxy]ethan-1-ammonium hydrogenoxalate], the values for the Emax on 5-HT1AR [1] (setting [3]), on 5-HT1AR [1] (setting [4]) and at 5-HT1AR [2] (rat hippocampal membranes) were 158 ± 5.9%, 149 ± 35.1% and 158 ± 5.9%, respectively. Moreover, the EC50 on 5-HT1AR [1] (Table SI-1) and at 5-HT1AR [2] (setting [5]) was 63.1 nM each time. In addition, on 5-HT1AR [1] (Table SI-1), the shift ratio amounted to 10.0. Also, the “agonist classification by Emax vs serotonin” value on 5-HT1AR [2] is on record as “partial agonists”. In addition, the “selectivity 5-HT7/5-HT1A” value on human 5-HT7b is given as 112. Further, the Ki on human 5-HT7b was 501 nM.
`Cn1cncc1-c1ccccc1OCCNC[C@@H]1COC(c2ccccc2)(c2ccccc2)O1` [(R)-2, N-((2,2-Diphenyl-1,3-dioxolan-4-yl)methyl)-2-(2-(1-methyl-1H-imidazol-5-yl)phenoxy)ethan-1-ammonium hydrogenoxalate]: the Emax at 5-HT1AR [1] (setting [3]) turned out to be 143 ± 3.6%; at 5-HT1AR [1] (setting [4]), 140 ± 18.8%; at 5-HT1AR [2] (rat hippocampal membranes), 143 ± 3.6%. The EC50 on 5-HT1AR [1] (Table SI-1) and on 5-HT1AR [2] (setting [5]) was 63.1 nM each time. Also, at 5-HT1AR [1] (Table SI-1), the shift ratio amounted to 19.9. Also, the “agonist classification by Emax vs serotonin” value at 5-HT1AR [2] is “partial agonists”. Also, on human 5-HT7b, the “selectivity 5-HT7/5-HT1A” value came to 66. At human 5-HT7b, the Ki is 794 nM.
Take `c1ccc(C2(c3ccccc3)OC[C@H](CNCCOc3ccccc3-c3ccncc3)O2)cc1` [(S)-1, N-[(2,2-Diphenyl-1,3-dioxolan-4-yl)methyl]-2-[2-(pyridin-4-yl)phenoxy]ethan-1-ammonium hydrogenoxalate]: the Emax on 5-HT1AR [1] (setting [3]) came out at 138 ± 2.9%; on 5-HT1AR [1] (setting [4]) it was 134 ± 24.5%; at 5-HT1AR [2] (rat hippocampal membranes) it was 138 ± 2.9%. Further, the EC50 on 5-HT1AR [1] (Table SI-1) and at 5-HT1AR [2] (setting [5]) was 15.8 nM each time. Also, the shift ratio at 5-HT1AR [1] (Table SI-1) was 39.8. The “functional activity of (S)-1 compared with racemate 1” value on 5-HT1AR [2] came to 6 fold. Besides, the “agonist classification by Emax vs serotonin” value at 5-HT1AR [2] is “partial agonists”. Moreover, the “selectivity 5-HT7/5-HT1A” value on human 5-HT7b is 43. In addition, the Ki on human 5-HT7b is 398 nM.
Take `Cn1cncc1-c1ccccc1OCCNC[C@H]1COC(c2ccccc2)(c2ccccc2)O1` [(S)-2, N-((2,2-Diphenyl-1,3-dioxolan-4-yl)methyl)-2-(2-(1-methyl-1H-imidazol-5-yl)phenoxy)ethan-1-ammonium hydrogenoxalate]: the Emax on 5-HT1AR [1] (setting [3]) came to 175 ± 2.7%; at 5-HT1AR [1] (setting [4]) it was 156 ± 21.7%; at 5-HT1AR [2] (rat hippocampal membranes), 175 ± 2.7%. Besides, the EC50 at 5-HT1AR [1] (Table SI-1) and on 5-HT1AR [2] (setting [5]) was 25.1 nM in each case. On 5-HT1AR [1] (Table SI-1), the shift ratio is 25.1. For the same compound, the “agonist classification by Emax vs serotonin” value on 5-HT1AR [2] was “full agonists”. Besides, the “selectivity 5-HT7/5-HT1A” value at human 5-HT7b turned out to be 148. Also, on human 5-HT7b, the Ki was 603 nM.
